Target: Lb proteinase (Foot-and-mouth disease virus serotype O, UniProt P03305)
Sequence (P03305 29-201 limits assumed): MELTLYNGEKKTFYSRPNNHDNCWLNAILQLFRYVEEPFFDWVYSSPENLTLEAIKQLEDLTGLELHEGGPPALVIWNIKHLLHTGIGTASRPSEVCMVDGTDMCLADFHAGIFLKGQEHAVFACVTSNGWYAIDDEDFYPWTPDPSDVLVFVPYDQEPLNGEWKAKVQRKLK

## AKVQRKLKGAGQSSPA [LVP4-1]
  FMDV Lb cleavage site on the peptide (* indicates cleavage site): K*G
  cleavage of peptide in the absence of SDS (controls): complete cleavage
  peptide cleaved by Lb (qualitative): cleaved
Lb proteinase, 4 min, 100 µM, pH 8
  cleavage of peptide by Lb after 4 min: more than 80%
Lb proteinase, 8 min, 100 µM, pH 8
  cleavage of peptide by Lb after 8 min: about 90%

— patent US6180385A (priority 1996, dated 2001)
